Experimental data from paper PMC7714071, “Interaction of amyloid beta with humanin and acetylcholinesterase is modulated by ATP” (FEBS Open Bio, 2020).

What was measured:
[1] = system: HN-Aβ complex (H1299 cell-conditioned media); assay: ELISA, HN found in a complex with Aβ in H1299 cell-conditioned media; assay type: binding, human; settings: ATP 100 μM, 1 mM; increased levels, compared with A549 media; Fig. 5C,D
Method: Human NSCLC cell lines, A549 (ATCC CCL‐185) and H1299 (ATCC CRL‐5803), were purchased from the American Type Culture Collection (ATCC, Manassas, VA, USA). Cells were seeded as we reported earlier in 5 mL HyClone Dulbecco's modified Eagle's medium/nutrient mixture F‐12 (DMEM/F12) (GE Healthcare Life Sciences, Pittsburgh, PA, USA), supplemented with 10% Fetalgro bovine growth serum (FBS; RMBIO, Missoula, MT, USA), 50 U·mL^−1 penicillin, and […] streptomycin (Invitrogen, Life Technologies, Carlsbad, CA, USA) in 25‐cm^2 tissue culture flasks, and allowed to grow overnight in an incubator at 37 °C, 95% humidity, and 5% CO2. The cells were counted after trypan blue staining, with a hemocytometer.
ELISAs were carried out as we previously reported. […] TBST was then used to wash the wells 4× before proceeding in one of two ways: (a) biotinylated samples were analyzed by adding 100 µL streptavidin–HRP conjugate in TBST (1 : 2500 dilution) to the samples followed by incubation for 3 h at RT on a shaker, or (b) samples without biotin were analyzed by adding 100 µL TBST containing the primary antibody as per the manufacturer's recommendation, incubating for 3 h at RT on a shaker, followed by washing the wells 4× with TBST. […] The reaction was stopped with 100 µL 2 M H2SO4 after incubating at RT for 0.5–15 min, resulting in a yellow color change, measured by absorbance at 450 nm. […]

[2] = system: AChE-Aβ interaction; settings: cited from earlier work
Source text: Access to the central domain of Aβ (residues 17–24) flanked by Lys‐16 and Lys‐28, known to be a critical structural element in fibrillar Aβ aggregates, might be regulated by binding of AChE and HN to their overlapping binding sites on Aβ. […] Moreover, we s ...

[3] = system: Aβ42; settings: HN and AChE compared; cited from earlier work
Source text: Humanin has been previously reported to bind amino acid residues 17–28 of Aβ (Fig. 1). AChE is also known to bind Aβ (1–16) and the Aβ (12–28) region (Fig. 1). Since the binding sites of AChE and HN on Aβ are overlapping, we previously investigated whether HN and AChE can simultaneously bind Aβ [79].

| Compound | levels of HN bound to Aβ in the presence of ATP [1] | effect of HN on binding of AChE to Aβ [2] | affinity for Aβ42 [3] |
| --- | --- | --- | --- |
| Nc1ncnc2c1ncn2[C@@H]1O[C@H](COP(=O)(O)OP(=O)(O)OP(=O)(O)O)[C@@H](O)[C@H]1O [ATP, Adenosine triphosphate] | also comparable | – | – |
| Humanin [HN] | – | it is not abolished | comparable affinities |
